Results from PMC5945843, “Direct neurotransmitter activation of voltage-gated potassium channels” (Nature Communications, 2018).
“And” between values parts separate entries of the source, which are not always exact repeats. Identical values can stand only once. “Also recorded” adds a separate entry of the source. Like-named read-outs stand apart in the source and are kept apart here.

How the values were obtained:
[1] = biological target: heteromeric KCNQ2/3 channels (Homo sapiens, UniProt O43525+O43526); test: TEVC in Xenopus oocytes; type: cell-based; details: for effect of compound alone on KCNQ2/3 current: 100 µM; for EC50: at −60 mV
heteromeric KCNQ2/3 channels, sequence (O43526 whole entry): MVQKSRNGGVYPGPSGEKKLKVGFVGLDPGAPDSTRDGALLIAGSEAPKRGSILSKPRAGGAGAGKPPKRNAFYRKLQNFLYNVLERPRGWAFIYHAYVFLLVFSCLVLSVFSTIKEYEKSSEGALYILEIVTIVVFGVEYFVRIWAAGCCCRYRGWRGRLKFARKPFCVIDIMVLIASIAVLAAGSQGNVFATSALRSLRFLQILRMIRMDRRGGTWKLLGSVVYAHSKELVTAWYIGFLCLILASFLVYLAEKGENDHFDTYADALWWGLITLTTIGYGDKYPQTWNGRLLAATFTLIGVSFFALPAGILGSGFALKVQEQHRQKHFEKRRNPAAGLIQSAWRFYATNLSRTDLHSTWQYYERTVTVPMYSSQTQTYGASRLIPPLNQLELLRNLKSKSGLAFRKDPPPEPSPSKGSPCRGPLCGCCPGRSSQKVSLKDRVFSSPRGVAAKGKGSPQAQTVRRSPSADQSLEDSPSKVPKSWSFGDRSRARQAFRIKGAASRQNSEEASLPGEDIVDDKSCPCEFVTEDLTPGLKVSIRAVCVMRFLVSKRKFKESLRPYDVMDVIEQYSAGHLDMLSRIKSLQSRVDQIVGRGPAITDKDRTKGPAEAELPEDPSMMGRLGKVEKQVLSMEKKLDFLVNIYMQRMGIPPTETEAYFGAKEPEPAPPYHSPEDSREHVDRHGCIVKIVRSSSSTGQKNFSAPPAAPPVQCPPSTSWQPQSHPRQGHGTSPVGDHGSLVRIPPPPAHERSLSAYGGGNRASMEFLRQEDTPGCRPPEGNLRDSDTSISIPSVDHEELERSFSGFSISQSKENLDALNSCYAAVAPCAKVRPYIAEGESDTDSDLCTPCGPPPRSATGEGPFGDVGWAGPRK
heteromeric KCNQ2/3 channels, sequence (O43525 whole entry): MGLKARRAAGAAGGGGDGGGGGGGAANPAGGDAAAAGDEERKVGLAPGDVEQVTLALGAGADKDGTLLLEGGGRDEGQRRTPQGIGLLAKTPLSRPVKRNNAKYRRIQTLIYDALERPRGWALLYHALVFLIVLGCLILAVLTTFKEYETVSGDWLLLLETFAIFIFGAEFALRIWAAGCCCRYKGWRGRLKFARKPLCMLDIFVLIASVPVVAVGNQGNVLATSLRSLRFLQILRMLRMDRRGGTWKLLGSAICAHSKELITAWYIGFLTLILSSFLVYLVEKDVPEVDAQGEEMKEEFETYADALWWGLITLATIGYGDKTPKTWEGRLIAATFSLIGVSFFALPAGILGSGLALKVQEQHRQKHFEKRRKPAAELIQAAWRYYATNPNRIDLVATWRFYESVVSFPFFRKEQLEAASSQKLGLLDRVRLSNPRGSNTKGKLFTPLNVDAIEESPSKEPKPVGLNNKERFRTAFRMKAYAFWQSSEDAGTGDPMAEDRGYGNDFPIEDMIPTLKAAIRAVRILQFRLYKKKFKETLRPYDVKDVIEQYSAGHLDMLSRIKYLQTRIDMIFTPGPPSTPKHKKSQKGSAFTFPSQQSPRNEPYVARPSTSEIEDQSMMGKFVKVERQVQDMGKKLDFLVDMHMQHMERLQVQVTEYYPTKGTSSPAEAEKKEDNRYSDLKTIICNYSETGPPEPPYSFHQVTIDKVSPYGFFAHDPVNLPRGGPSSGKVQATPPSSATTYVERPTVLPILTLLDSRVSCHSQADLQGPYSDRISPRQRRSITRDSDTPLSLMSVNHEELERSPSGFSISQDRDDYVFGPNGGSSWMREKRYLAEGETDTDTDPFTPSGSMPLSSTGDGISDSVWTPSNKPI
Description: cRNA transcripts encoding human KCNQ1, KCNQ2, KCNQ3, KCNQ4, KCNQ5, KCNA1, or KCNE1 were generated by in vitro transcription using the T7 polymerase mMessage mMachine kit (Thermo Fisher Scientific), after vector linearization, from complementary DNA (cDNA) sub-cloned into plasmids incorporating Xenopus laevis β-globin 5′ and 3′ untranslated regions flanking the coding region to enhance translation and cRNA stability. cRNA was quantified by spectrophotometry. […] Defolliculated stage V and VI Xenopus laevis oocytes (Ecocyte Bioscience, Austin, TX) were injected with Kv channel α subunit cRNAs (5–10 ng).
Oocytes were placed in a small-volume oocyte bath (Warner) and viewed with a dissection microscope. Chemicals were sourced from Sigma. Bath solution was (in mM): 96 NaCl, 4 KCl, 1 MgCl2, 1 CaCl2, 10 HEPES (pH 7.6). […] Valeric acid was stored as a 5 mM stock in Ringer’s solution at 4 °C and diluted to working concentrations each experimental day. β-hydroxybutyric acid was stored at 4 °C as a 480 mM stock in 100% ethanol and diluted to working concentrations each experimental day. All compounds were introduced to the recording bath via gravity perfusion at a constant flow of 1 ml per min for 3 min prior to recording. Pipettes were of 1–2 MΩ resistance when filled with 3 M KCl. Currents were recorded in response to pulses between −80 mV and +40 mV at 20 mV intervals, or a single pulse to +40 mV, from a holding potential of −80 mV, to yield current-voltage relationships, current magnitude, and for quantifying activation rate. Deactivation was recorded at −80 mV after a single activating pulse to +40 mV, from a holding potential of −80 mV. […] TEVC data analysis was performed with Clampfit (Molecular Devices) and Graphpad Prism software (GraphPad, San Diego, CA, USA); values are stated as mean ± SEM. Normalized tail currents were plotted versus prepulse voltage and fitted with a single Boltzmann function:1 g=(A1-A2)/1+expV1/2-V∕VS+A2, where g is the normalized tail conductance, A1 is the initial value at −∞, A2 is the final value at +∞, V1/2 is the half-maximal voltage of activation, and VS the slope factor. Activation and deactivation kinetics were fitted with single exponential functions.

KCNQ1 = KCNQ1 (Homo sapiens, UniProt P51787); test: 3H-GABA radioligand binding in Xenopus oocytes; details: extracellularly applied, 100 nM
KCNQ4 = KCNQ4 (Homo sapiens, UniProt P56696); test: 3H-GABA radioligand binding in Xenopus oocytes; details: extracellularly applied, 100 nM
KCNQ5 = KCNQ5 (Homo sapiens, UniProt Q9NR82); test: 3H-GABA radioligand binding in Xenopus oocytes; details: extracellularly applied, 100 nM
KCNQ3* = test system: KCNQ3*; parameters: method as in PMID 26333338; details: read-out: EC50 (sensitivity previously reported); cited from earlier work
GABA receptors = test system: GABA receptors; parameters: method as in PMID 25779225; details: cited from earlier work
[2] = test system: native M-current in PC12 cells; test: Whole-cell patch clamp of NGF-differentiated PC12 cells; type: cell-based, rat
Description: CHO cells (ATCC) were seeded on poly-L-lysine-treated glass coverslips in 24-well plates and transfected the next day using 0.5 µg each of mouse KCNQ2 and KCNQ3 cDNA in a CMV vector per well in normal media (DMEM with 10% FBS and 1% penicillin/streptomycin). The transfection reagent used was TransIT-LT1 (Mirus Bio LLC, Madison, WI, USA) and cells were patched 48–72 h post transfection. […] Media was replenished every 3 days and cultures were split once a week. […] Cell culture plastic ware and reagents were purchased from VWR and Fisher Scientific unless otherwise stated.
For both CHO cells and PC12 cells, currents were recorded in whole-cell mode at room temperature (22–25 °C) with 3–6 MΩ borosilicate glass electrodes backfilled with solution containing (in mM): 90 K acetate, 20 KCl, 40 HEPES, 3 MgCl2, 1 CaCl2, 3 EGTA-KOH, 2 MgATP; pH 7.2.
The pClamp8 (Molecular Devices) software package was used for data acquisition and Clampfit was used for analysis, along with Graphpad Prism 7.0 (Graphpad).

[3] = test system: native M-current in mouse DRG neurons; test: Perforated patch-clamp of dorsal root ganglion neurons; type: cell-based; details: XE991 10 µM in combination with GABA 100 µM
Description: Adult male mice were purchased from Jackson Labs and then housed and used according to a protocol approved by the Institutional Animal Care and Use Committee of University of California, Irvine, and consistent with recommendations in the NIH Guide for the Care and Use of Laboratory Animals (8th edition, 2011). […]. DRG neurons were then cultured on poly-L-lysine and laminin-coated plastic coverslips in RPMI 1640 with 10% horse serum and 1% penicillin/streptomycin at 37 °C for 1–4 days before electrophysiological recordings were performed using perforated patch clamp. Amphotericin B (VWR, Radnor, PA) was dissolved in DMSO at 5 mg/ml (stock solution), then diluted to 150–200 µg/ml in intracellular solution and sonicated with a probe sonicator on ice for 5 s, kept at room temperature in the dark, and replaced every hour with a fresh solution from the stock. The working amphotericin solution was backfilled into borosilicate glass electrodes (3–5 MΩ) previously tip-filled to ~0.5 mm with intracellular solution lacking amphotericin B, immediately prior to sealing onto individual neurons. After whole-cell configuration was achieved and capacitance stabilized, whole-cell recordings were performed essentially as described in the prior paragraph, with the following differences: neurons were held at −20 mV to inactivate other channels before the test pulses; offline leak subtraction was performed.

[4] = test system: canonical GABAA receptors; parameters: method as in PMID 17717222; details: up to 5 mM BHB; cited from earlier work
[5] = 100 µM compound with 10 µM GABA
[6] = Ctrl with 2 µg/ml Pertussis toxin, no GABA
[7] = 10 µM XE991 + 100 µM picrotoxin + 10 µM CGP55845, recorded after the GABA condition

CCCCC(=O)O [valeric acid, reference compound]
Slope ([1]; 500 µM Valeric acid, Ctrl 9.1 ± 0.5): 8.5 ± 0.6 mV | Normalized tail current V0.5 ([1]; 500 µM Valeric acid, Ctrl -44.2 ± 0.6): -45.1 ± 0.6 mV | Non-normalized tail current V0.5 ([1]; 500 µM Valeric acid, Ctrl -44.5 ± 5.4): -45.6 ± 4.9 mV | Slope ([1]; 500 mM Valeric acid, Ctrl 9.1 ± 0.5): 8.5 ± 0.6 mV | Normalized tail current V0.5 ([1]; 500 mM Valeric acid, Ctrl -44.2 ± 0.6): -45.1 ± 0.6 mV | Non-normalized tail current V0.5 ([1]; 500 mM Valeric acid, Ctrl -44.5 ± 5.4): -45.9 ± 4.9 mV | activity on KCNQ2/3 ([1]; up to 5 mM): inactive; also recorded: no effects

[3H]C(CN)C([3H])C(=O)O (stereo not drawn) [^3H-GABA]
3H-GABA binding (KCNQ1): did not | 3H-GABA binding (KCNQ4): bound | 3H-GABA binding (KCNQ5): bound

C[C@H](NC[C@H](O)CP(=O)(O)Cc1ccccc1)c1ccc(Cl)c(Cl)c1 [CGP55845, reference compound]
effect of compound alone on KCNQ2/3 current [1]: neither altered KCNQ2/3 currents alone | Slope ([1]; 100 µM CGP, Ctrl 6.7 ± 0.3): 6.6 ± 0.7 mV | Non-normalized tail current V0.5 ([1]; 100 µM CGP, Ctrl -44.9 ± 3.5): -45.6 ± 3.7 mV | Normalized tail current V0.5 ([1]; 100 µM CGP, Ctrl -45.1 ± 0.3): -47.1 ± 1.1 mV | effect on GABA activation of KCNQ2/3 [1, 5]: nor did it diminish GABA activation of KCNQ2/3

CCOC(=O)Nc1ccc(NCc2ccc(F)cc2)cc1N [retigabine]
EC50 (KCNQ3*): 11600 nM | action on GABA receptors (GABA receptors): weak activator

NCC(O)CC(=O)O (stereo not drawn) [GABOB, γ-amino-β-hydroxybutyric acid]
agonist character compared to BHB and GABA [1]: lower efficacy partial agonist | effect on retigabine activation of KCNQ2/3 [1]: reduces the efficacy | Slope ([1]; 0.01 µM GABOB, Ctrl 10.3 ± 1.3): 11.1 ± 1.8 mV | Non-normalized tail current V0.5 ([1]; 0.01 µM GABOB, Ctrl -43.8 ± 3.9): -42.7 ± 5.0 mV | Normalized tail current V0.5 ([1]; 0.01 µM GABOB, Ctrl -44.9 ± 1.5): -42.8 ± 2.0 mV | Slope ([1]; 0.1 µM GABOB, Ctrl 10.3 ± 1.3): 10.6 ± 1.6 mV | Non-normalized tail current V0.5 ([1]; 0.1 µM GABOB, Ctrl -43.8 ± 3.9): -45.8 ± 5.1 mV | Normalized tail current V0.5 ([1]; 0.1 µM GABOB, Ctrl -44.9 ± 1.5): -46.6 ± 1.9 mV | Slope ([1]; 1 µM GABOB, Ctrl 10.3 ± 1.3): 10.1 ± 1.2 mV | Non-normalized tail current V0.5 ([1]; 1 µM GABOB, Ctrl -43.8 ± 3.9): -46.4 ± 4.7 mV | Normalized tail current V0.5 ([1]; 1 µM GABOB, Ctrl -44.9 ± 1.5): -47.1 ± 1.4 mV | Slope ([1]; 10 µM GABOB, Ctrl 10.3 ± 1.3): 9.6 ± 0.9 mV | Non-normalized tail current V0.5 ([1]; 10 µM GABOB, Ctrl -43.8 ± 3.9): -46.8 ± 4.5 mV | Normalized tail current V0.5 ([1]; 10 µM GABOB, Ctrl -44.9 ± 1.5): -48.1 ± 1.2 mV | Slope ([1]; 100 µM GABOB, Ctrl 10.3 ± 1.3): 9.3 ± 0.8 mV | Non-normalized tail current V0.5 ([1]; 100 µM GABOB, Ctrl -43.8 ± 3.9): -46.3 ± 4.2 mV | Normalized tail current V0.5 ([1]; 100 µM GABOB, Ctrl -44.9 ± 1.5): -47.8 ± 0.9 mV | effect on GABA activation of KCNQ2/3 [1, 5]: diminished the KCNQ2/3-activating efficacy of GABA | Slope ([1]; 1 mM GABOB, Ctrl 10.3 ± 1.3): 9.2 ± 0.7 mV | Non-normalized tail current V0.5 ([1]; 1 mM GABOB, Ctrl -43.8 ± 3.9): -46.7 ± 4.0 mV | Normalized tail current V0.5 ([1]; 1 mM GABOB, Ctrl -44.9 ± 1.5): -48.0 ± 0.9 mV | lowering of retigabine efficacy ([1]; at -60 mV): almost fourfold | EC50 [1]: 100 ± 10 nM

NCC(CS(=O)(=O)O)c1ccc(Cl)cc1 (stereo not drawn) [saclofen, reference compound]
effect on GABA activation of KCNQ2/3 [1]: nor did it diminish GABA activation of KCNQ2/3 | effect of compound alone on KCNQ2/3 current [1]: neither altered KCNQ2/3 currents alone | Slope ([1]; 100 µM Saclofen, Ctrl 5.6 ± 1.1): 5.5 ± 0.8 mV | Non-normalized tail current V0.5 ([1]; 100 µM Saclofen, Ctrl -41.1 ± 6.7): -42.8 ± 6.6 mV | Normalized tail current V0.5 ([1]; 100 µM Saclofen, Ctrl -42.3 ± 0.8): -42.6 ± 0.8 mV

Pertussis toxin
Non-normalized tail current V0.5 [1, 6]: -41.9 ± 6.3 mV | Normalized tail current V0.5 [1, 6]: -40.9 ± 1.4 mV | Slope [1, 6]: 8.8 ± 1.4 mV

O=C1c2ccccc2C(Cc2ccncc2)(Cc2ccncc2)c2ccccc21 [XE991]
effect on GABA-augmented KCNQ2/3 current ([1]; XE991 50 µM): readily inhibited | Normalized tail current V0.5 [2, 7]: -4.9 ± 4.3 mV | Slope [2, 7]: 18.4 ± 2.2 mV | effect on GABA-dependent shift of tail currents ([2]; XE991 10 µM): removed the GABA-dependent negative-shift | inhibition of deactivating current at −60 mV [3]: > 50%

CC(O)CC(=O)O (stereo not drawn) [BHB, β-hydroxybutyric acid]
Slope ([1]; 1 µM β-Hydrox, Ctrl 6.2 ± 0.8): 5.9 ± 0.4 mV | Normalized tail current V0.5 ([1]; 1 µM β-Hydrox, Ctrl -36.1 ± 1.8): -46.1 ± 0.6 mV | Non-normalized tail current V0.5 ([1]; 1 µM β-Hydrox, Ctrl -36.4 ± 8.7): -43.9 ± 8.2 mV | Slope ([1]; 10 µM β-Hydrox, Ctrl 6.2 ± 0.8): 5.9 ± 0.4 mV | Normalized tail current V0.5 ([1]; 10 µM β-Hydrox, Ctrl -36.1 ± 1.8): -48.1 ± 0.4 mV | Non-normalized tail current V0.5 ([1]; 10 µM β-Hydrox, Ctrl -36.4 ± 8.7): -45.5 ± 7.9 mV | Slope ([1]; 100 µM β-Hydrox, Ctrl 6.2 ± 0.8): 5.9 ± 0.3 mV | Normalized tail current V0.5 ([1]; 100 µM β-Hydrox, Ctrl -36.1 ± 1.8): -50.2 ± 0.3 mV | Non-normalized tail current V0.5 ([1]; 100 µM β-Hydrox, Ctrl -36.4 ± 8.7): -46.0 ± 7.9 mV | Slope ([1]; 1 mM β-Hydrox, Ctrl 6.2 ± 0.8): 5.7 ± 0.6 mV | Normalized tail current V0.5 ([1]; 1 mM β-Hydrox, Ctrl -36.1 ± 1.8): -46.5 ± 0.9 mV | Non-normalized tail current V0.5 ([1]; 1 mM β-Hydrox, Ctrl -36.4 ± 8.7): -46.0 ± 7.4 mV | Slope ([1]; 4 mM β-Hydrox, Ctrl 6.2 ± 0.8): 4.9 ± 0.6 mV | Normalized tail current V0.5 ([1]; 4 mM β-Hydrox, Ctrl -36.1 ± 1.8): -44.9 ± 0.8 mV | Non-normalized tail current V0.5 ([1]; 4 mM β-Hydrox, Ctrl -36.4 ± 8.7): -44.7 ± 7.1 mV | EC50 [1]: 950 ± 130 nM | BHB sensitivity [4]: BHB-insensitive

Cc1cc(C)c(NC(=O)C2CC3CCC2C3)c(C)c1 (stereo not drawn) [ML-213]
EC50 (KCNQ3*): 3600 nM

NCC(CC(=O)O)c1ccc(Cl)cc1 (stereo not drawn) [baclofen, reference compound]
effect of compound alone on KCNQ2/3 current [1]: insensitive | Slope ([1]; 100 µM Baclofen, Ctrl 9.3 ± 0.3): 9.2 ± 0.5 mV | Non-normalized tail current V0.5 ([1]; 100 µM Baclofen, Ctrl -42.6 ± 2.3): -45.4 ± 2.5 mV | Normalized tail current V0.5 ([1]; 100 µM Baclofen, Ctrl -44.2 ± 0.4): -46.4 ± 0.6 mV

picrotoxin
Slope ([2]; 100 µM picrotoxin + 10 µM CGP55845, Ctrl (extracellular solution only) 20.3 ± 4.5): 17.4 ± 3.0 mV | Normalized tail current V0.5 ([2]; 100 µM picrotoxin + 10 µM CGP55845, Ctrl (extracellular solution only) -9.2 ± 4.9): -7.1 ± 7.6 mV

NCCc1ccc(O)c(O)c1 [dopamine]
effect of compound alone on KCNQ2/3 current [1]: no effect | Slope ([1]; 100 µM Dopamine, Ctrl 8.4 ± 1.5): 7.2 ± 0.6 mV | Normalized tail current V0.5 ([1]; 100 µM Dopamine, Ctrl -40.8 ± 1.4): -41.9 ± 0.6 mV | Non-normalized tail current V0.5 ([1]; 100 µM Dopamine, Ctrl -41.6 ± 5.3): -41.8 ± 3.6 mV

CC(=O)OCC[N+](C)(C)C [ACh, acetylcholine]
Slope [1]: 4.8 ± 2.7 mV and 3.8 ± 6.5 mV and 5.1 ± 2.5 mV and 5.6 ± 2.7 mV and 5.1 ± 1.9 mV | concentration giving maximal effect [1]: ≥ 1 µM | effect on KCNQ2/3 activity via endogenous mAChRs [1]: inhibited
